# In patent US11447534B2, “Peptide complex with immunodulatory and anti-inflammatory function” (NATIONAL INSTITUTE OF IMMUNOLOGY, priority 2018, dated 2022):
# System: ConA stimulated EOC20 microglia
# Experiment: F-actin staining and qPCR in ConA stimulated EOC20 microglia
# Format: cell-based
# Procedure: To determine the immunomodulatory effect of A-O complex, serum starved macrophages were exposed to the complex. Macrophages (1×10^6 cells) were serum starved for 30 min after which cells were exposed to A-O complex. After 1 hour, cells were washed with 1×PBS (pH 7.4) and harvested using cell dissociation solution. Then the cells were suspended in ice cold staining buffer (100 μl) and centrifuged at 1000 rpm for 5 min at 4° C. The cells were resuspended in 100 μl ice cold staining buffer for 10 min at 2-8° C. and pellet resuspended in 50 μl staining media. To this 2 μl of Fc block or anti-mouse CD16/CD32 was added for 10 mins and washed with staining buffer. The cells were resuspended in 50 μl of staining buffer and incubated with fluorescent-tagged CD36 antibody (e-biosciences) for 25-30 min on ice. The excess stain was removed by washing and pelleting down using staining buffer thrice by spinning and removal of staining buffer. The cell suspension was fixed 1:1 ratio (staining buffer:fixative) and analysed within 48 h in ARIA3 DIVA software version 6.1. Further, expression of MHC-II, and CD-36, was also determined in the microglial cells via qPCR. For this RNA extraction was performed using RNA extraction kit from Qiagen according to the manufacturer's instruction. cDNA synthesis was performed using cDNA synthesis kit from Qiagen. To perform qPCR, 10 ng cDNA (per well) was amplified using the Light Cycler 480 Sybergreen I Master reagent (Roche Diagnostics, Indianapolis, Ind.) and primers (commercially purchased from SABiosciences, Qiagen) in the Light Cycler 480 (Roche Diagnostics, Switzerland) under following cycling conditions: 3 min at 95° C., 15 sec at 95° C., 20 sec at 60° C., 25 sec at 72° C. for 40 cycles. Following amplification, fold changes in gene expression versus β-actin (reference) analysis was determined using the 2^ΔΔCT(Livak) method.
# To determine the immunomodulatory effect of A-O complex in microglia, EOC20 microglial cells from ATCC (CRL-2469) was employed. The cells were cultured in high glucose Dulbecco's […] Essential Media (DMEM) containing 4 mM L-glutamine, 10% fetal bovine serum (FBS) and 20% LADMAC conditioned media. LADMAC media was prepared by growing 80% confluent LADMAC cell line from ATCC (CRL-2420) in alpha-minimal essential media supplemented with 10% FBS for 5 days. The spent supernatant was centrifuged at 1000 rpm for 10 min and the supernatant was filtered as used as LADMAC media. To determine the morphological changes in microglia upon exposure to A-O complex, F-actin confocal microscopy was performed. […]
# Next, immunomodulatory effect of A-O complex on activated microglial cells was determined. […] The immunomodulatory effect was assessed via F-actin staining and qPCR.
# [1] = ConA stimulated microglia, qPCR
substance,measurement,setting,value
"A-O complex: peptide complex of 100 μM Abeta1-42 (SEQ ID NO: 1) and 3 ng Glu-OC (SEQ ID NO: 2), incubated at 37° C. for 4 hours",mRNA level of Cd11b,[1],normalized
same,mRNA level of Cd36,[1],induced
same,mRNA level of Tnfa,[1],normalized
same,microglia morphology (F-actin),"EOC20 microglia, ConA 30 mins then A-O complex 1 hour",presence of cells with ramified process
